According to patent publication US20120009240A1, “Films for Delivery of a Therapeutic Agent” (priority 2010, published 2012):
Where a name gives a salt, the structure may show the parent alone.

Test: Saturation and payload limits for dip coating a polyester mesh (Parietex monofilament mesh) with bupivacaine HCl solution (FIG. 8)
Format: physicochemical
Details: polyester mesh without a polymer film
Text: Further, it is believed that spraying films on a medical device (e.g., mesh) compared to other conventional methods, such as dip coating, provides increased loading of the therapeutic agent.
More particularly FIG. 8 illustrates the loading limits for a polyester mesh (Parietex™ monofilament mesh) without a polymer film.

CCCCN1CCCCC1C(=O)Nc1c(C)cccc1C (centres unmarked) [bupivacaine hydrochloride]
saturation and payload limits for dip coating (solution in MeOH): 12 % w/v
saturation and payload limits for dip coating (solution in water): 5 % w/v
